Test results: patent US7998989B2, “2-Imino-1,3-thiazoline-based compounds and T-type calcium channel inhibitors containing the same” (Korea Institute of Science and Technology, priority 2007, dated 2011)

Legend:
[1] = biological target: T1, α1G T-type calcium channel (Homo sapiens, UniProt O43497); assay: Assay for % inhibiting activity against T-type calcium channel using FDSS6000 (fluo-3 calcium imaging, KCl activation); type: cell-based; details: HEK293 cells stably expressing α1G T-type calcium channel and Kir2.1, compounds of the examples; for inhibition at 10 µM: HEK293, 10 μM, read-out: FDSS (% inhibition)/10uM
T1 construct: host or cells: HEK293
Summary of the method: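 Percent inhibition derived from […] area against untreated control (100%), after 75 s compound pre-exposure and 75 mM KCl activation. Cells: HEK293 with stable α1G plus Kir2.1, fluo-3/AM-labelled (5 μM), assayed in pH 7.4 HEPES containing 10 mM CaCl2.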

T1 sequence (O43497 whole entry): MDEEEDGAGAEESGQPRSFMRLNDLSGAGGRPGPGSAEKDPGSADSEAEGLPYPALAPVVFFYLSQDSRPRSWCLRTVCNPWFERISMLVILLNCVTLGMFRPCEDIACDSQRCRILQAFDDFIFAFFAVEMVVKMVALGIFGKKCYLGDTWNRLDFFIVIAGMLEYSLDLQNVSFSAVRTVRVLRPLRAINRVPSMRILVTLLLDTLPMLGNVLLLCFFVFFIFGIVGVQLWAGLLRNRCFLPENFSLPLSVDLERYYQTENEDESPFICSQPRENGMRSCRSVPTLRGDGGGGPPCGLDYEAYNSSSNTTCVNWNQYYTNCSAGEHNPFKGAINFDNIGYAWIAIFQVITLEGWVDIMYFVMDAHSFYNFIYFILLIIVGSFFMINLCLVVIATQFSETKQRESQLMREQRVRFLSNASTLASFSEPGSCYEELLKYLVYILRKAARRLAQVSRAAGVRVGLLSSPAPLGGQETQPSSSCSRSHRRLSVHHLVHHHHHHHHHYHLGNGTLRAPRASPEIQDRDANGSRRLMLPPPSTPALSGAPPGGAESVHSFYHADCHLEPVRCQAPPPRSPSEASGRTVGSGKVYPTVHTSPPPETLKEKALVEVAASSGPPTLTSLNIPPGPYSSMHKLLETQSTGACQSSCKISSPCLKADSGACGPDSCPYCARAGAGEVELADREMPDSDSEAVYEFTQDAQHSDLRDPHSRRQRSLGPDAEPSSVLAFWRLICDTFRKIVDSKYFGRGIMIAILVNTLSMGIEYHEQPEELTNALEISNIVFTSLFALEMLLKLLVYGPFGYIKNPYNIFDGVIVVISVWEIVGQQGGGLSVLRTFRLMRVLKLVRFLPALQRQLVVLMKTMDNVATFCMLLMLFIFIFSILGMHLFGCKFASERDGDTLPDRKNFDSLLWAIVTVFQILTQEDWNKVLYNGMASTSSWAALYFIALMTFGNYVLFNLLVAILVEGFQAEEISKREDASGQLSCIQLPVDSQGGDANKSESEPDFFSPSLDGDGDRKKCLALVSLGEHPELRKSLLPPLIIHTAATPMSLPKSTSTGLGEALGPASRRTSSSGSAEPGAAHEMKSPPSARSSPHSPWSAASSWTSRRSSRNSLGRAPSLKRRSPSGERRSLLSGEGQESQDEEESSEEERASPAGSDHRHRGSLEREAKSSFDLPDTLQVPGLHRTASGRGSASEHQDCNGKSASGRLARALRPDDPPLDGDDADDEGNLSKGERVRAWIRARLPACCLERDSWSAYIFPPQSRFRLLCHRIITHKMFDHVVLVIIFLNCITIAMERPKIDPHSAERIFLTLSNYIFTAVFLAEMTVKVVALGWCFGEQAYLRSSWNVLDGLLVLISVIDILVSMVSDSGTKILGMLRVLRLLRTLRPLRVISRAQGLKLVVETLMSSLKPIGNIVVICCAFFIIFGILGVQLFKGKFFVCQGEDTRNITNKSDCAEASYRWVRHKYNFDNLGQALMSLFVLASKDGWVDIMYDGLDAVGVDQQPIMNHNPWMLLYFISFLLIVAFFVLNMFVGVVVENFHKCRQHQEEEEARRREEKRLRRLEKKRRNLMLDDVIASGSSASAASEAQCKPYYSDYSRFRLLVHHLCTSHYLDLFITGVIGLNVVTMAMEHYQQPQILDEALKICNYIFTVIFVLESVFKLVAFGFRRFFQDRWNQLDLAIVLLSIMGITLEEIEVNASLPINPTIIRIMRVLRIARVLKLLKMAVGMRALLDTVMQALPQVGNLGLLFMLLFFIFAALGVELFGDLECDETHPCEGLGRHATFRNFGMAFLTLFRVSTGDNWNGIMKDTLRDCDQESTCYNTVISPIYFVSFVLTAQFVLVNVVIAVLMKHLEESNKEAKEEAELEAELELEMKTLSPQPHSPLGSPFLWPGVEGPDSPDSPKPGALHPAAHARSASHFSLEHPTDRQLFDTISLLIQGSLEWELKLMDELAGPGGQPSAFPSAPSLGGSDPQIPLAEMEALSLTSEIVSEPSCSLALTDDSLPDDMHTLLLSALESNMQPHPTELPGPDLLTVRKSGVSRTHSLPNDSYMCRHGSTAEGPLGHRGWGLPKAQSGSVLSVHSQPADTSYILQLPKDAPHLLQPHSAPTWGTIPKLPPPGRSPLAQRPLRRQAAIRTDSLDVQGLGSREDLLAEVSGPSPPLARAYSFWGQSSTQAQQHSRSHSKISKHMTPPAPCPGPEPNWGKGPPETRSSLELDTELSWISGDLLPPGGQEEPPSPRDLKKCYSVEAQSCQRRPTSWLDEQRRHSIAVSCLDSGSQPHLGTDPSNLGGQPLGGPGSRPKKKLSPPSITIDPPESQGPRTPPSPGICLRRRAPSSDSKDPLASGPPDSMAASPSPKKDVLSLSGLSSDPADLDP

A melting point of 178 to 179 °C and an inhibition at 10 µM [1] of 46.3% were found for `Cl.O=C(CC1CSC(=NC2CCCCC2)N1Cc1ccccc1)Nc1cc(Cl)cc(Cl)c1` (stereo not shown) [KHG24422, (2-cyclohexylimino-3-benzyl-1,3-thiazolidine-4-yl)-N-(3,5-dichlorophenyl)-acetamide hydrochloride] in this work.

A melting point of 242 °C and an inhibition at 10 µM [1] of 50.8% were found for `CN1C(=NC2CCCCCC2)SCC1CC(=O)Nc1ccc([N+](=O)[O-])cc1.Cl` (stereo not shown) [KHG24445, (2-cycloheptylimino-3-methyl-1,3-thiazolidine-4-yl)-N-(4-nitrophenyl)-acetamide hydrochloride] in this work.

A melting point of 262 to 264 °C and an inhibition at 10 µM [1] of 51.6% were found for `CC1SC(=NC2CCCCC2)N(C)C1CC(=O)Nc1ccc(Cl)cc1` (stereo not shown) [KHG24480, (2-cyclohexylimino-3,5-dimethyl-1,3-thiazolidine-4-yl)-N-(4-chlorophenyl)-acetamide] in this work.

A melting point of 260 to 262 °C and an inhibition at 10 µM [1] of 52.4% were found for `CC1SC(=NC2CCCCC2)N(C)C1CC(=O)Nc1ccc(Br)cc1` (stereo not shown) [KHG24482, (2-cyclohexylimino-3,5-dimethyl-1,3-thiazolidine-4-yl)-N-(4-bromophenyl)-acetamide] in this work.

A melting point of 264 to 265 °C and an inhibition at 10 µM [1] of 52.5% were found for `CC1SC(=NC2CCCCC2)N(C)C1CC(=O)Nc1cc(Cl)cc(Cl)c1` (stereo not shown) [KHG24483, (2-cyclohexylimino-3,5-dimethyl-1,3-thiazolidine-4-yl)-N-(3,5-dichlorophenyl)-acetamide] in this work.

A melting point of 249 to 251 °C and an inhibition at 10 µM [1] of 32.8% were found for `CC1SC(=NC2CCCCC2)N(C)C1CC(=O)Nc1cc([N+](=O)[O-])ccc1F` (stereo not shown) [KHG24484, (2-cyclohexylimino-3,5-dimethyl-1,3-thiazolidine-4-yl)-N-(2-fluoro-5-nitrophenyl)-acetamide] in this work.

A melting point of 253 to 254 °C and an inhibition at 10 µM [1] of 55.8% were found for `CC1SC(=NC2CCCCCC2)N(C)C1CC(=O)Nc1ccc(Br)cc1` (stereo not shown) [KHG24486, (2-cycloheptylimino-3,5-dimethyl-1,3-thiazolidine-4-yl)-N-(4-bromophenyl)-acetamide] in this work.

A melting point of 247 to 249 °C and an inhibition at 10 µM [1] of 54.6% were found for `CCCCc1ccc(NC(=O)CC2C(C)SC(=NC3CCCCCC3)N2C)cc1.Cl` (stereo not shown) [KHG24516, (2-cycloheptylimino-3,5-dimethyl-1,3-thiazolidine-4-yl)-N-(4-n-butylphenyl)-acetamide hydrochloride] in this work.

A melting point of 262 to 264 °C and an inhibition at 10 µM [1] of 49.6% were found for `CCc1ccc(NC(=O)CC2C(C)SC(=NC3CCCCCC3)N2C)cc1.Cl` (stereo not shown) [KHG24517, (2-cycloheptylimino-3,5-dimethyl-1,3-thiazolidine-4-yl)-N-(4-ethylphenyl)-acetamide hydrochloride] in this work.

A melting point of 229 to 231 °C and an inhibition at 10 µM [1] of 50.7% were found for `CC1SC(=NC2CCCCCC2)N(C)C1CC(=O)Nc1ccc(F)cc1.Cl` (stereo not shown) [KHG24518, (2-cycloheptylimino-3,5-dimethyl-1,3-thiazolidine-4-yl)-N-(4-fluorophenyl)-acetamide hydrochloride] in this work.

A melting point of 260 to 262 °C and an inhibition at 10 µM [1] of 55.7% were found for `CC(C)c1ccc(NC(=O)CC2C(C)SC(=NC3CCCCCC3)N2C)cc1.Cl` (stereo not shown) [KHG24519, (2-cycloheptylimino-3,5-dimethyl-1,3-thiazolidine-4-yl)-N-(4-isopropylphenyl)-acetamide hydrochloride] in this work.

A melting point of 261 to 263 °C and an inhibition at 10 µM [1] of 64.8% were found for `CC1SC(=NC2CCCCCC2)N(C)C1CC(=O)Nc1ccc(C(F)(F)F)cc1.Cl` (stereo not shown) [KHG24520, (2-cycloheptylimino-3,5-dimethyl-1,3-thiazolidine-4-yl)-N-(4-trifluoromethylphenyl)-acetamide hydrochloride] in this work.

A melting point of 239 to 241 °C and an inhibition at 10 µM [1] of 54.3% were found for `CC1SC(=NC2CCCCCC2)N(C)C1CC(=O)Nc1ccc(C(C)(C)C)cc1.Cl` (stereo not shown) [KHG24521, (2-cycloheptylimino-3,5-dimethyl-1,3-thiazolidine-4-yl)-N-(4-t-butylphenyl)-acetamide hydrochloride] in this work.

A melting point of 244 to 246 °C and an inhibition at 10 µM [1] of 47.9% were found for `CC1SC(=NC2CCCCC2)N(C)C1CC(=O)Nc1cc(CF)cc(CF)c1.Cl` (stereo not shown) [KHG24522, (2-cyclohexylimino-3,5-dimethyl-1,3-thiazolidine-4-yl)-N-(3,5-difluoromethylphenyl)-acetamide hydrochloride] in this work.

A melting point of 265 to 266 °C and an inhibition at 10 µM [1] of 46.3% were found for `CCc1ccc(NC(=O)CC2C(C)SC(=NC3CCCCC3)N2C)cc1.Cl` (stereo not shown) [KHG24523, (2-cyclohexylimino-3,5-dimethyl-1,3-thiazolidine-4-yl)-N-(4-ethylphenyl)-acetamide hydrochloride] in this work.

A melting point of 178 to 180 °C and an inhibition at 10 µM [1] of 41.3% were found for `CC1SC(=NC2CCCCC2)N(C)C1CC(=O)Nc1ccc(OC(F)(F)F)cc1.Cl` (stereo not shown) [KHG24524, (2-cyclohexylimino-3,5-dimethyl-1,3-thiazolidine-4-yl)-N-(4-trifluoromethoxyphenyl)-acetamide hydrochloride] in this work.

A melting point of 267 to 269 °C and an inhibition at 10 µM [1] of 31.5% were found for `CC1SC(=NC2CCCCC2)N(C)C1CC(=O)Nc1ccc(F)cc1.Cl` (stereo not shown) [KHG24525, (2-cyclohexylimino-3,5-dimethyl-1,3-thiazolidine-4-yl)-N-(4-fluorophenyl)-acetamide hydrochloride] in this work.

A melting point of 265 to 267 °C and an inhibition at 10 µM [1] of 42.3% were found for `CC(C)c1ccc(NC(=O)CC2C(C)SC(=NC3CCCCC3)N2C)cc1.Cl` (stereo not shown) [KHG24526, (2-cyclohexylimino-3,5-dimethyl-1,3-thiazolidine-4-yl)-N-(4-isopropylphenyl)-acetamide hydrochloride] in this work.

A melting point of 190 to 192 °C and an inhibition at 10 µM [1] of 47% were found for `CC1SC(=NC2CCCCC2)N(C)C1CC(=O)Nc1ccc(C(F)(F)F)cc1.Cl` (stereo not shown) [KHG24527, (2-cyclohexylimino-3,5-dimethyl-1,3-thiazolidine-4-yl)-N-(4-trifluoromethylphenyl)-acetamide hydrochloride] in this work.

A melting point of 160 °C and an inhibition at 10 µM [1] of 54.2% were found for `CC(C)c1cccc(NC(=O)CC2CSC(=NC3CCCCC3)N2C)c1.Cl` (stereo not shown) [KHG24528, (2-cyclohexylimino-3-methyl-1,3-thiazolidine-4-yl)-N-(3-isopropylphenyl)-acetamide hydrochloride] in this work.

A melting point of 215 °C and an inhibition at 10 µM [1] of 38.5% were found for `CN1C(=NC2CCCCC2)SCC1CC(=O)Nc1cccc(Cl)c1Cl.Cl` (stereo not shown) [KHG24530, (2-cyclohexylimino-3-methyl-1,3-thiazolidine-4-yl)-N-(2,3-dichlorophenyl)-acetamide hydrochloride] in this work.

A melting point of 223 °C and an inhibition at 10 µM [1] of 48.4% were found for `CN1C(=NC2CCCCC2)SCC1CC(=O)Nc1ccc(Cl)c(Cl)c1.Cl` (stereo not shown) [KHG24531, (2-cyclohexylimino-3-methyl-1,3-thiazolidine-4-yl)-N-(3,4-dichlorophenyl)-acetamide hydrochloride] in this work.

A melting point of 208 °C and an inhibition at 10 µM [1] of 52.5% were found for `CN1C(=NC2CCCCC2)SCC1CC(=O)Nc1cc(Cl)ccc1Cl.Cl` (stereo not shown) [KHG24532, (2-cyclohexylimino-3-methyl-1,3-thiazolidine-4-yl)-N-(2,5-dichlorophenyl)-acetamide hydrochloride] in this work.

A melting point of 186 °C and an inhibition at 10 µM [1] of 48.9% were found for `CN1C(=NC2CCCCC2)SCC1CC(=O)Nc1cc(Cl)c(Cl)cc1Cl.Cl` (stereo not shown) [KHG24533, (2-cyclohexylimino-3-methyl-1,3-thiazolidine-4-yl)-N-(2,4,5-trichlorophenyl)-acetamide hydrochloride] in this work.

A melting point of 240 °C and an inhibition at 10 µM [1] of 45.7% were found for `CN1C(=NC2CCCCC2)SCC1CC(=O)Nc1cc(F)cc(F)c1.Cl` (stereo not shown) [KHG24534, (2-cyclohexylimino-3-methyl-1,3-thiazolidine-4-yl)-N-(3,5-difluorophenyl)-acetamide hydrochloride] in this work.

A melting point of 180 °C and an inhibition at 10 µM [1] of 51.1% were found for `Cl.O=C(CC1CSC(=NC2CCCCC2)N1C1CCCCC1)NCc1ccccc1C(F)(F)F` (stereo not shown) [KHG24547, (2-cyclohexylimino-3-cyclohexyl-1,3-thiazolidine-4-yl)-N-(2-trifluoromethylbenzyl)-acetamide hydrochloride] in this work.

A melting point of 187.9 °C and an inhibition at 10 µM [1] of 42.6% were found for `CN1C(=NC2CCCCCC2)SCC1C(=O)Nc1cc(F)ccc1F.Cl` (stereo not shown) [KHG24626, (2-cycloheptylimino-3-methyl-1,3-thiazolidine-4-yl)-N-(2,5-difluorophenyl)-carboxamide hydrochloride] in this work.

A melting point of 209.6 °C and an inhibition at 10 µM [1] of 48.5% were found for `CN1C(=NC2CCCCCC2)SCC1C(=O)Nc1ccc(F)c(F)c1` (stereo not shown) [KHG24627, (2-cycloheptylimino-3-methyl-1,3-thiazolidine-4-yl)-N-(3,4-difluorophenyl)-carboxamide] in this work.

For `Cc1ccc(NC(=O)C2CSC(=NC3CCCCCC3)N2C)cc1.Cl` (stereo not shown) [KHG24629, (2-cycloheptylimino-3-methyl-1,3-thiazolidine-4-yl)-N-(4-methylphenyl)-carboxamide hydrochloride], the melting point was 202.1 °C and the “FDSS (% inhibition)/10uM” value [1] was 47.03%.

With `CN1C(=NC2CCCCCC2)SCC1C(=O)Nc1cc(C(F)(F)F)cc(C(F)(F)F)c1.Cl` (stereo not shown) [KHG24632, (2-cycloheptylimino-3-methyl-1,3-thiazolidine-4-yl)-N-(3,5-ditrifluoromethylphenyl)-carboxamide hydrochloride] the melting point was 202 °C and the “FDSS (% inhibition)/10uM” value [1] was 57.06%.

A melting point of 109.2 °C and an inhibition at 10 µM [1] of 40.4% were found for `CN1C(=NC2CCCCCC2)SCC1C(=O)Nc1ccc(Br)cc1` (stereo not shown) [KHG24633, (2-cycloheptylimino-3-methyl-1,3-thiazolidine-4-yl)-N-(4-bromophenyl)-carboxamide] in this work.

A melting point of 232.8 °C and an inhibition at 10 µM [1] of 46.9% were found for `CN1C(=NC2CCCCCC2)SCC1C(=O)Nc1ccccc1Br.Cl` (stereo not shown) [KHG24634, (2-cycloheptylimino-3-methyl-1,3-thiazolidine-4-yl)-N-(2-bromophenyl)-carboxamide hydrochloride] in this work.
